The values that follow come from PMC11705230, “Discovery and Synthetic Applications of a NAD(P)H-Dependent Reductive Aminase from Rhodococcus erythropolis” (ACS Catalysis, 2024).

This assay has as its target T1, RytRedAm (Rhodococcus erythropolis, UniProt Z9GXG8TLZ1).
T1 construct: recombinant, N-terminal His-tag in pET-28a(+), E. coli BL21(DE3); Ni-NTA purified; homodimer; printed residues R35, I69, T90, D166, Y235
T1 sequence (Z9GXG8TLZ1 1-291): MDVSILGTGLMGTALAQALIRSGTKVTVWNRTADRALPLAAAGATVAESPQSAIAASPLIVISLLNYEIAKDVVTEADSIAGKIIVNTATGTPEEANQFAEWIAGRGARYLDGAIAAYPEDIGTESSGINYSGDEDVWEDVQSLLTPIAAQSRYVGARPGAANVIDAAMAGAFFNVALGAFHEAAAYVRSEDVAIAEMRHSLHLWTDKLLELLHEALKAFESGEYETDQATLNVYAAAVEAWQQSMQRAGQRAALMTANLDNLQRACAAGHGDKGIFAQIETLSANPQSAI
In words: X-ray crystallography. As to conditions: cocrystallized with NADP+, nicotinamide ring and ribose density absent; cofactor site; pH 7.0. The class given is binding.

For the compound `Nc1ncnc2c1ncn2[C@@H]1O[C@H](COP(=O)(O)OP(=O)(O)O)[C@@H](O)[C@H]1OP(=O)(O)O` [ADP-2RP], the X-ray crystallography entry is on record as “crystals obtained with the latter gave an ADP-2′-ribose phosphate (ADP-2RP) complex”.
